Test results as given in patent US20210206773A1, “DRUG FOR TREATING DISORDERS OF CORNEAL EPITHELIUM” (EA PHARMA CO., LTD., priority 2014, published 2021).

Legend:
[1] = tested on: HCE cells (human corneal epithelial cells); test: Suppressive effect on cell injury under hyperosmotic conditions (MTT method); type: cell-based; settings: 24 hours, hyperosmotic medium with 150 mM NaCl and 160 mM NaCl, or 320 mM glucose, FIG. 1 to FIG. 3
Procedure: HCE cells (human corneal epithelial cells) were cultured for 24 hours in a hyperosmotic medium containing a compound of Formula (1aa) (hereinafter, Compound (1aa)) (as a hydrate). The medium was adjusted to fulfill the hyperosmotic conditions using 150 mM NaCl and 160 mM NaCl, or 320 mM glucose. The number of live cells was measured by the MTT method, and relative values of light absorbance with respect to the light absorbance of the control (isotonic pressure conditions) were calculated. The value is expressed as average value±S.D. (n=3), **P<0.01.

dry eye model rat = test: Therapeutic effect on corneal surface injury in dry eye model rat (lacrimal glands removed); type: in vivo; settings: 5 μL of aqueous solution 0.05 w/v % (1.5 mM) three times a day, 1 to 5 weeks after removal of lacrimal glands
Procedure: The lacrimal glands of a rat were removed, and a dry eye model was produced. After 1 to 5 weeks from the removal of lacrimal glands, 5 μL of an aqueous solution containing Compound (1aa) (0.05 w/v %, 1.5 mM) was administered to the rat three times a day. The value is expressed as average value±S.E.M., *P<0.05; and **P<0.01.

[2] = tested on: muc1 and muc16 messenger RNAs in HCE cells; test: Change in amount of expression of mucin messenger RNA (real time RT-PCR); type: cell-based, human; settings: 3 hours and 24 hours, FIG. 8
Procedure: HCE cells were cultured in a medium containing Compound (1aa). The amounts of expression of muc1 and muc16 messenger RNAs after culturing for 3 hours and 24 hours were measured by a real time RT-PCR method. Relative values of the amount of expression with respect to the amount of expression of actin messenger RNA were calculated, and the results are presented in FIG. 8. The value is expressed as average value±S.D. (triplicate), *P<0.05; and **P<0.01.

[3] = tested on: HCE cells (human corneal epithelial cells); test: Suppressive effect on cell injury caused by ethanol (MTT method); type: cell-based; settings: 4 v/v % ethanol, FIG. 4
Procedure: HCE cells (human corneal epithelial cells) were cultured in a medium containing Compound (1aa) and 4 v/v % ethanol. The number of live cells was measured by the MTT method, and relative values of light absorbance with respect to the light absorbance of the control (absence of ethanol) were calculated. The value is expressed as average value±S.D. (n=3), *P<0.05; and **P<0.01.

HCE cells = test: Suppressive effect on apoptosis under hyperosmotic conditions (caspase-3-like activity, fluorescent peptide substrate); type: cell-based, human; settings: 160 mM NaCl, 3 hours and 6 hours, FIG. 5
Procedure: HCE cells were cultured in a hyperosmotic medium containing Compound (1aa) and 160 mM NaCl. After culturing for 3 hours and 6 hours, caspase-3-like activity, which is a marker for apoptosis, was measured using a fluorescent peptide substrate, and the results are presented in FIG. 5. The value is expressed as average value±S.D. (triplicate), **P<0.01, and the term n.s. means “not significant”.

SMILES: O=C1NCC2=C1[C@@H](c1ccccc1)N(C(=O)CO)[C@@H]1CCCC[C@H]1N2 [Compound (1aa), (1R,8R,10R)-9-(2-hydroxyacetyl)-8-phenyl-2,5,9-triazatricyclo[8.4.0.0^3,7]tetradeca-3(7)-en-6-one]
- survival rate of corneal epithelial cells under hyperosmotic conditions (number of live cells, relative light absorbance vs control) [1]: noticeably suppressed the decrease in the survival rate of corneal epithelial cells
- amount of lacrimal fluid (cotton thread test) (dry eye model rat; FIG. 6): increasing the amount of lacrimal fluid
- injury of the corneal surface (fluorescein scores) (dry eye model rat; FIG. 7): suppressed injury of the corneal surface
- amount of expression of mucin (muc1 and muc16 messenger RNAs relative to actin messenger RNA) [2]: increases the amount of expression of mucin
- survival rate of corneal epithelial cells with ethanol (number of live cells, relative light absorbance vs control) [3]: noticeably suppressed the decrease in the survival rate of corneal epithelial cells
- hyperosmotic stress-dependent apoptosis (caspase-3-like activity) (HCE cells): noticeably suppressed hyperosmotic stress-dependent apoptosis
